Test results: US20170058349A1, “METHODS FOR MANAGING CARE OF PATIENTS PREDISPOSED TO PROGRESSIVE MITRAL VALVE DISEASES” (The Children's Hospital of Philadelphia, priority 2014, published 2017)

Experiments:
human MVICs = assay: MVIC activation in vitro (SMA expression after 5HT stimulation); format: cell-based; settings: for VIC activation associated with 5HTR activation: human MVICs in vitro, antagonists of 5HTR2A, 2B and SERT; for SMA expression on 5HT stimulation: 5HT 10 nM
Procedure: MVICs isolated from healthy controls and patients with LL, LS, SS gene polymorphisms were treated with […] 5HT for 6 days in the presence or absence of a combination of 5HT2A antagonist Ketanserin, 5HT2B antagonist SDZ, and SERT antagonist Fluoxetine. RNA was isolated and tested for SMA expression as a marker of MVIC activation.
MVICs were isolated form patients with LL, LS, or SS genotype and controls (N=5/group) and exposed to 5HT stimulation (10 nM) to measure MVICs activation by alpha smooth muscle actin (SMA) as previously described by Rachana et al. (Journal of cellular physiology 227(6): 2595-604, November 2011. PMCID: PMC3288540) and Poggio et al. (Cardiovascular research 98(3): 402-10, June 2013. PMCID: PMC3656614). A combination of 5HT2A, 2B and SERT antagonists was used to inhibit 5HT stimulation in the three different genotypes (LL, LS, SS) with 10 μM ketanserin, 1 μM SDZ SER-082, and 1 μM Fluoxitine. (FIG. 4). RNA extract was collected to detect SMA expression.

C57BL/6J mice = assay: Chronic angiotensin II infusion, remodeling of the mitral valve tissue in mice; format: in vivo; settings: 28 days chronic infusion; for ECM remodeling of MV leaflets / 5HTR2A, 5HTR2B and SERT expression in MV leaflets: AngII vs. saline; for ECM remodeling of MV leaflets: histology; for 5HTR2A, 5HTR2B and SERT expression in MV leaflets: immunohistochemistry
Description: (A) Representative H&E staining of cross section of mice hearts harvested 28 days after saline or AngII chronic infusion. (B) Modified Movat Pentachrome staining of MV leaflets harvested 28 days after saline or AngII chronic infusion (Magnification 10× and 43×). (C) and (D) Immunohistochemistry staining of murine MV leaflets using anti-5HTR2A and anti-5HTR2B antibodies, respectively.
We have recently reported that reactive oxygen species (ROS) accumulation is leading aortic VICs activation ex vivo and in vitro with results showing that adenoviral delivery of antioxidant enzymes ameliorates aortic VICs activation. We therefore used our murine model based on chronic AngII infusion to reproduce ROS accumulation in the cardiac tissue (Branchetti et al., Cardiovasc Res. 2013; 100(2):316-324) to test whether we could provoke MV remodeling.

O=C(c1ccc(F)cc1)C1CCN(CCn2c(=O)[nH]c3ccccc3c2=O)CC1 [Ketanserin]
VIC activation associated with 5HTR activation (human MVICs): partially abrogate this effect

CNCCC(Oc1ccc(C(F)(F)F)cc1)c1ccccc1 (stereo not shown) [Fluoxetine]
VIC activation associated with 5HTR activation (human MVICs): partially abrogate this effect

CN1CC[C@@H]2CN3CCc4cccc(c43)[C@@H]2C1 [SDZ, SDZ SER-082]
VIC activation associated with 5HTR activation (human MVICs): partially abrogate this effect

NCCc1c[nH]c2ccc(O)cc12 [5HT, serotonin]
SMA expression on 5HT stimulation (human MVICs; MVICs from patients with LL genotype): significant upregulation of SMA | SMA expression on 5HT stimulation (human MVICs; MVICs from patients with SS and LS genotype): not responsive

Angiotensin II (DRVYIHPF; Angiotensin-2; UniProt P11859 25-32, looked up) [AngII, chronically infused to induce ROS accumulation and MV remodeling in mice]
mitral valve cusp thickness (C57BL/6J mice; AngII treated vs. saline infused mice, p<0.01): increased | ECM remodeling of MV leaflets (C57BL/6J mice): significant rearrangement of the ECM | ECM remodeling of MV leaflets (C57BL/6J mice; listed as Angiotensin II): ECM remodeling | 5HTR2A, 5HTR2B and SERT expression in MV leaflets (C57BL/6J mice): increased 5HTR2A and 2B and SERT | 5HTR2A, 5HTR2B and SERT expression in MV leaflets (C57BL/6J mice; listed as Angiotensin II): increased 5HTR-2B/SERT expressions
